The record followed here is patent publication US12533429B2, “Surface enhanced raman scattering nanoparticles and their use in detecting and imaging oxidative stress” (The Board of Trustees of the Leland Stanford Junior …, priority 2019, dated 2026).

Several values for one entry are separate records, joined by “and”; a condition that tells them apart may be missing. Equal entries are not always repeated.

For experiment [1], the system named is A431 cells. As to the kind of experiment: DCFH-DA fluorometric ROS assay in A431 cells. To be noted: DCFH-DA 40 μM, 24 h. The class given is cell-based, human. The protocol:
(§1) To measure ROS, a traditional fluorometric assay using Dichlorofluorescein diacetate (DCFH-DA; Sigma Aldrich, USA) was performed. DCFH-DA is a cell-permeable non-fluorescent probe which is hydrolyzed by intracellular esterases, thereby trapping it within the cell. This non-fluorescent molecule can then be oxidized by ROS, which turns it into fluorescent dichlorofluorescein (DCF). The level of intracellular fluorescence is therefore proportional to the amount of intracellular ROS production with a linear dynamic range [12]. All experiments were performed in 12-well plates. A431 and AsPC-1 cells were seeded in 12-well culture plates achieving a cell density of 50,000, 100,000, 200,000 and 300,000 cells/well. Cells were incubated with DCFH-DA (40 μM, 200 μL) in DMEM-10% FBS-50 U/mL penicillin-50 μg/mL streptomycin culture medium at 37° C. in a humidified incubator containing 5% CO2/95% air for 24 h. The fluorescence from DCF was then measured using a microplate spectrophotometer system with […].

In experiment [2] the test system is AsPC-1 cells. As to the kind of experiment: DCFH-DA fluorometric ROS assay in AsPC-1 cells. The class given is cell-based, human. To be noted: DCFH-DA 40 μM, 24 h. As for the experimental part: as §1
Experiment [3] deals with AD-MSCs. As to the kind of experiment: DCFH-DA fluorometric ROS assay in AD-MSCs. Format: cell-based. The settings on record: 300,000 AD-MSCs.

With Dichlorofluorescein diacetate [DCFH-DA], the “ROS production, DCFH-DA assay” value was 0.17±0.01 absorbance units in experiment [1] (50,000 A431 cells); 0.49±0.01 absorbance units in experiment [1] (100,000 A431 cells); 0.96±0.07 absorbance units in experiment [1] (200,000 A431 cells); 1.06±0.05 absorbance units and 1.10±0.04 absorbance units in experiment [1] (300,000 A431 cells); 0.15±0.04 absorbance units in experiment [2] (50,000 AsPC-1 cells); 0.51±0.06 absorbance units in experiment [2] (100,000 AsPC-1 cells). Further, the “ROS production, DCFH-DA assay” value in experiment [2] (200,000 AsPC-1 cells) stood at 0.82±0.05 absorbance units; in experiment [3], 1.06±0.05 absorbance units.
